Reference: patent US20020055512A1, “Compositions for delivery of a cortisol antagonist” (CORTENDO AB., priority 2000, published 2002)

Assay: Solubility of ketoconazole in lipid excipients (observation of undissolved crystals)
Format: physicochemical
Settings: ambient room temperature; estimated
Protocol: The solubility of ketoconazole in glycerol monooleate was assessed at 37° C. according to the following method. 2 g samples of ketoconazole (USP) and glycerol monooleate were mixed together in various proportions and put on a magnetic stirrer at 37° C. Samples containing 1, 3 and 5 wt. % of ketoconazole were investigated for the observation of ketoconazole crystals. Samples containing 1 wt. % ketoconazole were completely dissolved after less than 18 h but more than 2 h. Samples containing 3 wt % ketoconazole were almost homogeneous after 48 h, after which no further change of the sample took place. […] Thus, at 37° C. ketoconazole has a limited solubility in glycerol monooleate. It is estimated to be between 1 and 3 wt. %.
The solubility of ketoconazole in oleic acid was assessed at ambient room temperature using the method described in Example 1. Samples containing 5, 10, 15 and 33 wt. % of ketoconazole were mixed with oleic acid and the appearance of undissolved ketoconazole was investigated after 24 and 48 h. After 24 hours samples containing 5 wt. % ketoconazole were completely dissolved and after 48 h samples containing 10 wt. % of ketoconazole were completely homogenous and all ketoconazole was dissolved. Thus the solubility of ketoconazole in oleic acid is estimated to be about 10 wt. %.

solubility of ketoconazole in oleic acid: about 10 wt. %
SMILES: CC(=O)N1CCN(c2ccc(OCC3COC(Cn4ccnc4)(c4ccc(Cl)cc4Cl)O3)cc2)CC1 (stereo not shown) [ketoconazole, Ketoconazole]
